Measured values taken from ChEMBL document CHEMBL1201862, “PubChem BioAssay data set” (2004).
Structures can show the parent of a compound that is named as a salt.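 Briefly, cells in 96-well plates were exposed to five compound concentrations for 48 h, and endpoints were estimated by linear interpolation. Here, GI50 denotes the concentration required for 50% inhibition of growth.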 The source made the active and inactive calls. Cut-off read from the data, not from the text of the source: active = GI50 up to about 1.1 µM and inactive = higher.

Legend:
Experiment in all cases: inhibition of tumour cell growth, NCI panel, 48 h
[1] = tested on: ACHN
[2] = tested on: CAKI-1
[3] = tested on: HCT-116
[4] = tested on: HOP-62
[5] = tested on: IGROV-1
[6] = tested on: KM12
[7] = tested on: M14
[8] = tested on: MDA-N
[9] = tested on: Malme-3M
[10] = tested on: NCI-H522
[11] = tested on: OVCAR-4
[12] = tested on: SF-268
[13] = tested on: SF-539
[14] = tested on: SK-MEL-5
[15] = tested on: SK-OV-3
[16] = tested on: SNB-19
[17] = tested on: T47D
[18] = tested on: U-251
[19] = tested on: UACC-257

SMILES	GI50 [1]	GI50 [2]	GI50 [3]	GI50 [4]	GI50 [5]	GI50 [6]	GI50 [7]	GI50 [8]	GI50 [9]	GI50 [10]	GI50 [11]	GI50 [12]	GI50 [13]	GI50 [14]	GI50 [15]	GI50 [16]	GI50 [17]	GI50 [18]	GI50 [19]
CN[C@@H](C)[C@H](OP(=O)(O)OC1[C@@H](O)[C@H](O)C(O)[C@H](O)[C@@H]1O)c1ccccc1 (stereo partly specified)	> 100 µM (inactive)	> 100 µM (inactive)	> 100 µM (inactive)	> 100 µM (inactive)	> 100 µM (inactive)	> 100 µM (inactive)	> 100 µM (inactive)	> 100 µM (inactive)	> 100 µM (inactive)	> 100 µM (inactive)	> 100 µM (inactive)	> 100 µM (inactive)	16.3 µM (inactive)	> 100 µM (inactive)	> 100 µM (inactive)	> 100 µM (inactive)	> 100 µM (inactive)	> 100 µM (inactive)	> 100 µM (inactive)
COc1ccc(C2Oc3ccc(Cl)cc3C=C2[N+](=O)[O-])cc1OC (stereo unspecified)	1.43 µM (inactive)	1.67 µM (inactive)	0.426 µM (active)	1.49 µM (inactive)	1.56 µM (inactive)	1.48 µM (inactive)	0.231 µM (active)	0.231 µM (active)	1.75 µM (inactive)	1.05 µM (active)	1.93 µM (inactive)	0.617 µM (active)	1.55 µM (inactive)	1.53 µM (inactive)	2.3 µM (inactive)	1.92 µM (inactive)	1.52 µM (inactive)	1.05 µM (active)	1.41 µM (inactive)
O=C(O)c1cc2ccccc2c(/N=N/c2ccc(S(=O)(=O)Nc3ccccn3)cc2)c1O	> 100 µM (inactive)	> 100 µM (inactive)	> 100 µM (inactive)	> 100 µM (inactive)	> 100 µM (inactive)	> 100 µM (inactive)	> 100 µM (inactive)	> 100 µM (inactive)	> 100 µM (inactive)	> 100 µM (inactive)	> 100 µM (inactive)	> 100 µM (inactive)	> 100 µM (inactive)	> 100 µM (inactive)	> 100 µM (inactive)	< 0.01 µM (active)	> 100 µM (inactive)	> 100 µM (inactive)	> 100 µM (inactive)
CC1=C(C2=C(C)C(=O)C(=O)c3cc(C)ccc32)c2ccc(C)cc2C(=O)C1=O	0.189 µM (active)	0.182 µM (active)	0.333 µM (active)	0.451 µM (active)	0.282 µM (active)	0.205 µM (active)	0.182 µM (active)	0.187 µM (active)	0.215 µM (active)	0.21 µM (active)	0.221 µM (active)	0.203 µM (active)	0.182 µM (active)	0.206 µM (active)	1.45 µM (inactive)	0.15 µM (active)	0.249 µM (active)	0.226 µM (active)	0.193 µM (active)
C[C@]12CC[C@H]3[C@@H](CC=C4C[C@@H](O)CC[C@@]43C)[C@@H]1C/C(=C/c1ccccc1)[C@@H]2O	16.4 µM (inactive)	30.3 µM (inactive)	8.53 µM (inactive)	19.7 µM (inactive)	11.8 µM (inactive)	23 µM (inactive)	> 45.1 µM (inactive)	20.1 µM (inactive)	27.5 µM (inactive)	14.7 µM (inactive)	19.2 µM (inactive)	29.3 µM (inactive)	30.7 µM (inactive)	12.1 µM (inactive)	37.6 µM (inactive)	22.4 µM (inactive)	> 22 µM (inactive)	> 35.9 µM (inactive)	15.6 µM (inactive)
COc1cc2cc[n+](C)c(Cc3ccc(Oc4cc(Cc5c6cc(OC)c(OC)cc6cc[n+]5C)ccc4OC)cc3)c2cc1OC	> 100 µM (inactive)	> 100 µM (inactive)	> 100 µM (inactive)	> 100 µM (inactive)	> 100 µM (inactive)	> 100 µM (inactive)	> 100 µM (inactive)	> 100 µM (inactive)	> 100 µM (inactive)	> 100 µM (inactive)	> 100 µM (inactive)	> 100 µM (inactive)	> 100 µM (inactive)	> 100 µM (inactive)	> 100 µM (inactive)	> 100 µM (inactive)	> 100 µM (inactive)	> 100 µM (inactive)	> 100 µM (inactive)
NC1CC(=O)c2cc(Cl)sc21 (stereo unspecified)	> 100 µM (inactive)	> 100 µM (inactive)	> 100 µM (inactive)	> 100 µM (inactive)	> 100 µM (inactive)	> 100 µM (inactive)	> 100 µM (inactive)	> 100 µM (inactive)	> 100 µM (inactive)	> 100 µM (inactive)	> 100 µM (inactive)	> 100 µM (inactive)	> 100 µM (inactive)	> 100 µM (inactive)	> 100 µM (inactive)	> 100 µM (inactive)	> 100 µM (inactive)	> 100 µM (inactive)	> 100 µM (inactive)
CC1=C(C)C(=O)C(C2=C(C3=CC(=O)C(C)=C(C)C3=O)C(=O)C(C)=C(C)C2=O)=CC1=O	5.79 µM (inactive)	3.44 µM (inactive)	5.45 µM (inactive)	18.7 µM (inactive)	10.9 µM (inactive)	8.51 µM (inactive)	10 µM (inactive)	2.65 µM (inactive)	3.1 µM (inactive)	1.95 µM (inactive)	1.79 µM (inactive)	12.6 µM (inactive)	2.17 µM (inactive)	2.15 µM (inactive)	17.4 µM (inactive)	> 56.8 µM (inactive)	2.75 µM (inactive)	3.68 µM (inactive)	13.3 µM (inactive)
CN(C)c1ccc(/C=C/C=C(/C#N)c2ccccc2)cc1	34.4 µM (inactive)	33.5 µM (inactive)	16.4 µM (inactive)	19 µM (inactive)	21.4 µM (inactive)	4.8 µM (inactive)	15.8 µM (inactive)	1.94 µM (inactive)	14 µM (inactive)	10.5 µM (inactive)	> 38.6 µM (inactive)	37.3 µM (inactive)	16.4 µM (inactive)	14.5 µM (inactive)	34.8 µM (inactive)	30.1 µM (inactive)	9.57 µM (inactive)	17.1 µM (inactive)	40.7 µM (inactive)
Nc1c(C(=O)O)nnc2cc(Cl)ccc12	97.5 µM (inactive)	> 100 µM (inactive)	> 100 µM (inactive)	> 100 µM (inactive)	> 100 µM (inactive)	> 100 µM (inactive)	> 100 µM (inactive)	> 100 µM (inactive)	> 100 µM (inactive)	> 100 µM (inactive)	> 100 µM (inactive)	> 100 µM (inactive)	> 100 µM (inactive)	> 100 µM (inactive)	> 100 µM (inactive)	> 100 µM (inactive)	> 100 µM (inactive)	> 100 µM (inactive)	> 100 µM (inactive)
CN1CCC(O)(OC(=O)C(c2ccccc2)C2(O)CCCC2)CC1 (stereo unspecified)	> 100 µM (inactive)	> 100 µM (inactive)	> 100 µM (inactive)	> 100 µM (inactive)	> 100 µM (inactive)	> 100 µM (inactive)	> 100 µM (inactive)	> 100 µM (inactive)	> 100 µM (inactive)	> 100 µM (inactive)	> 100 µM (inactive)	> 100 µM (inactive)	> 100 µM (inactive)	> 100 µM (inactive)	> 100 µM (inactive)	> 100 µM (inactive)	> 100 µM (inactive)	> 100 µM (inactive)	> 100 µM (inactive)
Nc1nc2[nH]cc(CCc3ccc(C(=O)N[C@@H](CCC(=O)O)C(=O)O)cc3)c2c(=O)[nH]1 [PEMETREXED]	0.0255 µM (active)	> 100 µM (inactive)	0.0597 µM (active)	> 100 µM (inactive)	> 100 µM (inactive)	> 100 µM (inactive)	> 100 µM (inactive)	> 100 µM (inactive)	> 100 µM (inactive)	> 100 µM (inactive)	> 100 µM (inactive)	0.387 µM (active)	< 0.01 µM (active)	> 100 µM (inactive)	> 100 µM (inactive)	> 100 µM (inactive)	> 100 µM (inactive)	> 100 µM (inactive)	> 100 µM (inactive)
CN[C@@H]1[C@H](O)[C@H](NC)[C@H]2O[C@@]3(O)C(=O)C[C@@H](C)O[C@H]3O[C@@H]2[C@H]1O [SPECTINOMYCIN SULFATE]	> 100 µM (inactive)	> 100 µM (inactive)	> 100 µM (inactive)	> 100 µM (inactive)	> 100 µM (inactive)	> 100 µM (inactive)	> 100 µM (inactive)	> 100 µM (inactive)	> 100 µM (inactive)	> 100 µM (inactive)	> 100 µM (inactive)	> 100 µM (inactive)	> 100 µM (inactive)	> 100 µM (inactive)	> 100 µM (inactive)	> 100 µM (inactive)	> 100 µM (inactive)	> 100 µM (inactive)	> 100 µM (inactive)
Nc1nc(N)c(C2=CCN(Cc3ccccc3)CC2)c(=O)[nH]1	> 100 µM (inactive)	> 100 µM (inactive)	> 100 µM (inactive)	> 100 µM (inactive)	> 100 µM (inactive)	> 100 µM (inactive)	> 100 µM (inactive)	> 100 µM (inactive)	> 100 µM (inactive)	> 100 µM (inactive)	> 100 µM (inactive)	> 100 µM (inactive)	> 100 µM (inactive)	> 100 µM (inactive)	> 100 µM (inactive)	> 100 µM (inactive)	> 100 µM (inactive)	> 100 µM (inactive)	> 100 µM (inactive)
